Data set [1] relates to L. donovani axenic amastigotes (LV9). Put plainly: In vitro antileishmanial evaluation on L. donovani axenic amastigotes (SYBR Green). It is filed as cell-based, Leishmania donovani. To be noted: Leishmania donovani; LV9 axenic amastigote forms; read-out: L. donovani Axenic Amastigote IC50 ± SD. As to the method: L. donovani (MHOM/ET/67/HU3, also called LV9) promastigotes and axenic amastigotes were maintained according to the protocols previously described.
In vitro antileishmanial evaluation on L. donovani axenic amastigotes. This evaluation was performed using the SYBR Green method as previously described. IC50 values were calculated using the ICEstimator version 1.2 software (http://www.antimalarial-icestimator.net/runregression1.2.htm, accessed on 5 April 2023). Miltefosine was used as the reference drug.

Data set [2] has as its system L. donovani intramacrophage amastigotes. Briefly: In vitro antileishmanial evaluation on intramacrophage amastigotes (RAW 264.7 infected, SYBR Green). It is filed as cell-based, Leishmania donovani. The procedure:
In vitro antileishmanial evaluation on intramacrophage amastigotes. RAW 264.7 macrophages were infected with L. donovani axenic amastigotes according to a ratio of 10 parasites per macrophage. […] The in vitro treatment was applied 24 h post-infection, and the treatment duration was 48 h. […] The activity of the compounds is expressed as IC50, calculated using the ICEstimator version 1.2 software. Miltefosine was used as the reference drug.

Data set [3] relates to E. coli ATCC25922. Briefly: MIC determination on E. coli ATCC25922 (microdilution, resazurin). The format is cell-based, Escherichia coli. To be noted: value outside parentheses, read-out: E. coli ATCC25922 MIC. (Broth dilution looks for growth in wells or tubes with falling amounts of substance.)
Data set [4] deals with S. aureus ATCC25923. Put plainly: MIC determination on S. aureus ATCC25923 (microdilution, resazurin). It is filed as cell-based, Staphylococcus aureus. To be noted: value outside parentheses, read-out: S. aureus ATCC25923 MIC.
In data set [5] the test system is Mycobacterium tuberculosis H37Rv. Briefly: MIC determination for Mycobacterium tuberculosis H37Rv (REMA). It is filed as cell-based. As to conditions: Mycobacterium tuberculosis, H37RV.
Data set [6] deals with S. aureus ATCC29213. Put plainly: MIC determination on S. aureus ATCC29213. The format is cell-based, Staphylococcus aureus. To be noted: value in parentheses.

SMILES strings stand for the structures. Values after ≈ are worked out from the molar mass of the structure shown. Where two headings read alike, the source gives them in different places. A value given as a limit tells only on which side of the number the result lay.

As a reminder, the IC50 is the midpoint of a concentration-inhibition curve. For orientation: MIC means the lowest concentration found to suppress growth. As usually defined, the melting point is the temperature, or range, at which the solid turns liquid. Take `O=C(N/N=C/C=C/c1ccc([N+](=O)[O-])o1)c1ccncc1` [Compound 3, N′-[(1E,2E)-3-(5-Nitro-2-furyl)-2-propen-1-ylidene]isonicotinohydrazide]: the melting point was in the range of 252.1 to 254 °C. For the same compound, in data set [1], the IC50 turned out to be 600 ± 100 nM. For the same compound, the “SI (Selectivity Index)” value in data set [2] (CC50 (macrophage RAW 264.7)/IC50 (intramacrophage form of L. donovani)) is greater than 200. Also, the IC50 in data set [2] (Leishmania donovani, RAW264.7, RAW 264.7 macrophages infected, treatment 48 h, read-out: L. donovani Intramacrophage Amastigote IC50 ± SD) is 500 ± 100 nM. Further, in data set [3] (Escherichia coli, ATCC25922), the MIC was 28 µM (≈ 8.01 µg/mL). The MIC in data set [3] was 28 µM (≈ 8.01 µg/mL). For the same compound, the MIC in data set [4] (Staphylococcus aureus, ATCC25923) came to 1.75 µM (≈ 0.501 µg/mL). Besides, the MIC in data set [4] is recorded as 1.75 µM (≈ 0.501 µg/mL). The MIC in data set [5] (168 h, REMA, 7 days, read-out: M. tuberculosis H37Rv MIC) was determined as 1 µM (≈ 0.286 µg/mL). Also, the MIC90 in data set [5] (range for the active compounds, read-out: minimum inhibitory concentration (MIC90) on M. tuberculosis H37Rv) was in the range of 0.6 to 7.4 µM (≈ 0.172 to 2.12 µg/mL). Moreover, the MIC in data set [6] (Staphylococcus aureus, ATCC29213) is 7 µM (≈ 2 µg/mL). Besides, the MIC in data set [6] turned out to be 7 µM (≈ 2 µg/mL).
